This passage reports IC50 results from patent publication US20260374773A1, “MULTI-CYCLIC IRAK AND FLT3 INHIBITING COMPOUNDS AND USES THEREOF” (CHILDREN'S HOSPITAL MEDICAL CENTER, priority 2022, published 2026).

One assay relates to NF-κB. Put plainly: NF-κB SEAP reporter assay in THP-1-Blue NF-κB cells, Pam3CSK4 stimulated. The assay is classed as cell-based. The settings on record: THP-1-Blue cells, 1 ng/ml Pam3CSK4, 24 h, read-out: NF-κB Pam3SCK4 IC50. As to the method:
(§1) THP-1-Blue NF-κB cells (InvivoGen) carrying a stable integrated NF-κB-inducible secreted embryonic alkaline phosphatase (SEAP) reporter construct were plated at a concentration of 1×10^5 cells per well. The cells were stimulated with Pam3CSK4 (1 ng/ml) or hIL1B (1 ng/ml). After 10-20 minutes, the cells were then treated with vehicle (DMSO) or serial dilutions of the test compounds (10 doses tested for each test compound, with a […] starting at 1 μM or 3 μM) with a final volume of 200 μL for 24 hours at 37 °C. After 24 hours, the cells were centrifuged and 20 μL supernatant was incubated with 180 μL QUANTI-Blue reagent at 37 °C for 30-60 minutes. The levels of NF-κB-induced was measured in a microplate reader at 620 nm.
as §1, with “1 mM” for “1 μM”, “3 mM)” for “3 μM)”, “200 mL” for “200 μL”, “20 mL” for “20 μL”, “180 mL” for “180 μL”, “NF-κB-induced gene expression were” for “NF-κB-induced was”
For orientation: Reporter assays use an easily measured gene product as a stand-in for the process of interest.

Another assay addresses T1, FLT3 (Homo sapiens, UniProt P36888).
T1 sequence (P36888 27-993): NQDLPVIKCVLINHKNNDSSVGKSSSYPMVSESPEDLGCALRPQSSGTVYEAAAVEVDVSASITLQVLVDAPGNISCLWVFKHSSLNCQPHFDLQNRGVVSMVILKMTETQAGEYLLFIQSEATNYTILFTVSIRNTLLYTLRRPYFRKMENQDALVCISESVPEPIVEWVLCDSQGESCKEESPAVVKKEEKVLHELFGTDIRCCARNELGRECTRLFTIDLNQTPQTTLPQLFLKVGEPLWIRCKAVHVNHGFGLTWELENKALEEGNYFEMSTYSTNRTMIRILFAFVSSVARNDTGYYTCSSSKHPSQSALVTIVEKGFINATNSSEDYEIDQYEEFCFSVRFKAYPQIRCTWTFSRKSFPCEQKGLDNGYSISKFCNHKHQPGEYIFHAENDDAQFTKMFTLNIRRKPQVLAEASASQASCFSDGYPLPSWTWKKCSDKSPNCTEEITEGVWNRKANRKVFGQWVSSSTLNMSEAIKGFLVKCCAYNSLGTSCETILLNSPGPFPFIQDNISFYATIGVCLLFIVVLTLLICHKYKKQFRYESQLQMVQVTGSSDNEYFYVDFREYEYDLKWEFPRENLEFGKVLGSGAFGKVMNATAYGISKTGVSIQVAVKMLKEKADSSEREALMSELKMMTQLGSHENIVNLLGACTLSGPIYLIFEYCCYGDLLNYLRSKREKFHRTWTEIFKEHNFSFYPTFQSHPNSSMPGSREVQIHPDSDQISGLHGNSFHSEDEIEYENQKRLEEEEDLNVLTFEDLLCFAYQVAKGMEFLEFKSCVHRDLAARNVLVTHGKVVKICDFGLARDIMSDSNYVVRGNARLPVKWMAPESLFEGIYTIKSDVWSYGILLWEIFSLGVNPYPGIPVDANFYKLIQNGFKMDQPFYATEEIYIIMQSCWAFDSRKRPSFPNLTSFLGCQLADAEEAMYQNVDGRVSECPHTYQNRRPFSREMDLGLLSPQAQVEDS
The assay can be described thus: RBC HotSpot kinase inhibition assay, FLT3. Conditions: isolated kinase, 33P-ATP, 2 h. Type of assay: biochemical.
Description: (§2) This assay uses the isolated kinase enzyme. This assay is very useful for determining competition of the inhibitor for ATP and/or substrates and for measuring the kinetics of enzyme inhibition. […] Unlike kinase binding assays that measure competition for ATP, the HotSpot Kinase Assay is a functional assay that measures catalytic activity; as such it measures relative functional potency regardless of the mechanism of enzyme inhibition. This assay uses the form of the various enzymes that are easiest to express, which may not necessarily be the form of the enzyme that exist in the cell. (Sometimes the carboxy terminus has been truncated to aid in expression, or, if it is a receptor kinase, the enzyme itself is isolated from the other parts of the receptor that are involved in regulating kinase activity.)
The reagent used was as follows: Base Reaction buffer; 20 mM Hepes (pH 7.5), 10 mM MgCl2, 1 mM EGTA, 0.01% Brij35, 0.02 mg/ml BSA, 0.1 mM Na3VO4, 2 mM DTT, 1% DMSO. Required cofactors were added individually to each kinase reaction.
(§3) The reaction procedure was as follows: • 1) Substrates were prepared in freshly prepared Reaction Buffer. • 2) Any required cofactors were delivered to the substrate solution above. • 3) Kinase was delivered into the substrate solution and gently mixed. • 4) Compounds were delivered in 100% DMSO into the kinase reaction mixture by Acoustic technology (Echo550; nanoliter range), followed by incubation for 20 min at room temp. • 5) ^33P-ATP was delivered into the reaction mixture to initiate the reaction. • 6) The mixture was incubated for 2 hours at room temperature. • 7) Kinase activity was detected by P81 filter-binding method.
as §2, with “Although not wishing to be limited by theory, it is believed that sometimes” for “(Sometimes”, “activity.” for “activity.)”
The reagent used was as follows: Base Reaction buffer; 20 mM Hepes (pH 7.5), 10 mM MgCl2, 1 mM EGTA, 0.01% Brij35, 0.02 mg/ml BSA, 0.1 mM Na3 VO4, 2 mM DTT, 1% DMSO.
Required cofactors were added individually to each kinase reaction.
as §3, with “33P-ATP” for “^33P-ATP”

Where two headings read alike, the source gives them in different places. Some results are limits rather than exact numbers.

With `COc1cn2ncc(-c3nc(N[C@H]4CNCC[C@@H]4F)ccc3F)c2nc1C1CC1` [Compound 3, 6-(5-cyclopropyl-6-methoxypyrazolo[1,5-a]pyrimidin-3-yl)-5-fluoro-N-((3S,4S)-4-fluoropiperidin-3-yl)pyridin-2-amine], the IC50 with NF-κB (Table 15) is 22 nM; against FLT3 (Table 11) it was < 0.5 nM.

As for `COc1cn2ncc(-c3nc(N[C@@H]4CCCNC4)ccc3F)c2nc1C1CC1` [Compound 2, (R)-6-(5-cyclopropyl-6-methoxypyrazolo[1,5-a]pyrimidin-3-yl)-5-fluoro-N-(piperidin-3-yl)pyridin-2-amine], the IC50 is 71 nM in the assay on NF-κB (Table 15) and < 0.5 nM on FLT3 (Table 11).

Take `COc1cn2ncc(-c3nc(N[C@H]4CNC[C@@H]4F)ncc3F)c2nc1C(C)(C)O` [Compound 5a, 2-(3-(5-fluoro-2-(((3S,4S)-4-fluoropyrrolidin-3-yl)amino)pyrimidin-4-yl)-6-methoxypyrazolo[1,5-a]pyrimidin-5-yl)propan-2-ol]: at FLT3 (Table 17), the IC50 is < 0.5 nM.

On to `COc1cn2ncc(-c3cccc(N[C@H]4CNCC[C@@H]4F)n3)c2nc1C1CC1` [Compound 21, 6-(5-cyclopropyl-6-methoxypyrazolo[1,5-a]pyrimidin-3-yl)-N-((3S,4S)-4-fluoropiperidin-3-yl)pyridin-2-amine], for which the values for the IC50 with NF-κB (Table 15) and against FLT3 (Table 11) were 362 nM and < 0.5 nM, respectively.

Take `COc1cn2ncc(-c3nc(N[C@H]4CNC[C@@H]4F)c(F)cc3F)c2nc1C(C)(C)O` [Compound 12, 2-(3-(3,5-difluoro-6-(((3S,4S)-4-fluoropyrrolidin-3-yl)amino)pyridin-2-yl)-6-methoxypyrazolo[1,5-a]pyrimidin-5-yl)propan-2-ol]: the results for the IC50 with NF-κB (Table 15) and against FLT3 (Table 11) were 42 nM and < 0.5 nM, respectively.

Regarding `COc1cn2ncc(-c3cncc(N[C@@H]4CCCNC4)n3)c2nc1C1CC1` [Compound 11a, (R)-6-(5-cyclopropyl-6-methoxypyrazolo[1,5-a]pyrimidin-3-yl)-N-(piperidin-3-yl)pyrazin-2-amine], the half-inhibitory concentration (IC50) in the assay with NF-κB (Table 21) is 331 nM; against FLT3 (Table 17), < 0.5 nM.

As to `COc1cn2ncc(-c3nc(N[C@@H]4CCCNC4)ncc3F)c2nc1C(C)(C)O` [Compound 4a, (R)-2-(3-(5-fluoro-2-(piperidin-3-ylamino)pyrimidin-4-yl)-6-methoxypyrazolo[1,5-a]pyrimidin-5-yl)propan-2-ol], at FLT3 (Table 17), the IC50 was < 0.5 nM.

Take `COc1cn2ncc(-c3cccc(N[C@@H]4CCCNC4)n3)c2nc1C1CC1` [Compound 20, (R)-6-(5-cyclopropyl-6-methoxypyrazolo[1,5-a]pyrimidin-3-yl)-N-(piperidin-3-yl)pyridin-2-amine]: the IC50 in the assay on NF-κB (Table 15) is 441 nM; at FLT3 (Table 11), < 0.5 nM.

On to `COc1cn2ncc(-c3cccc(N[C@H]4CNC[C@@H]4F)n3)c2nc1C1CC1` [Compound 19, 6-(5-cyclopropyl-6-methoxypyrazolo[1,5-a]pyrimidin-3-yl)-N-((3S,4S)-4-fluoropyrrolidin-3-yl)pyridin-2-amine], for which the IC50 in the assay with NF-κB (Table 15) is 61 nM; against FLT3 (Table 11), < 0.5 nM.

Take `COc1cn2ncc(-c3nc(N[C@@H]4CCCNC4)ncc3F)c2nc1C1CC1` [Compound 14a, (R)-4-(5-cyclopropyl-6-methoxypyrazolo[1,5-a]pyrimidin-3-yl)-5-fluoro-N-(piperidin-3-yl)pyrimidin-2-amine]: the IC50 in the assay with NF-κB (Table 21) was 15 nM; on FLT3 (Table 17), < 0.5 nM.

As for `COc1cn2ncc(-c3nc(N[C@H]4CNC[C@@H]4F)c(F)cc3F)c2nc1C1CC1` [Compound 24, 6-(5-cyclopropyl-6-methoxypyrazolo[1,5-a]pyrimidin-3-yl)-3,5-difluoro-N-((3S,4S)-4-fluoropyrrolidin-3-yl)pyridin-2-amine], the IC50 against FLT3 (Table 11) is < 0.5 nM.

Take `COc1cn2ncc(-c3nc(N[C@H]4CNCC[C@@H]4F)c(C#N)cc3F)c2nc1C(C)(C)O` [Compound 10, 5-fluoro-2-(((3S,4S)-4-fluoropiperidin-3-yl)amino)-6-(5-(2-hydroxypropan-2-yl)-6-methoxypyrazolo[1,5-a]pyrimidin-3-yl)nicotinonitrile]: the IC50 in the assay on NF-κB (Table 15) was 22 nM; on FLT3 (Table 11), < 0.5 nM.

With `COc1cn2ncc(-c3nc(N[C@@H]4CCCNC4)c(C#N)cc3F)c2nc1C(C)(C)O` [Compound 9, (R)-5-fluoro-6-(5-(2-hydroxypropan-2-yl)-6-methoxypyrazolo[1,5-a]pyrimidin-3-yl)-2-(piperidin-3-ylamino)nicotinonitrile], the IC50 is 39 nM with NF-κB (Table 15) and < 0.5 nM on FLT3 (Table 11).

For the compound `COc1cn2ncc(-c3nc(N[C@H]4CNCC[C@@H]4F)c(C#N)cc3F)c2nc1C1CC1` [Compound 7, 6-(5-cyclopropyl-6-methoxypyrazolo[1,5-a]pyrimidin-3-yl)-5-fluoro-2-(((3S,4S)-4-fluoropiperidin-3-yl)amino)nicotinonitrile], the IC50 against FLT3 (Table 11) was < 0.5 nM.

For `COc1cn2ncc(-c3ccc(F)c(N[C@@H]4CCCNC4)n3)c2nc1C1CC1` [Compound 5, (R)-6-(5-cyclopropyl-6-methoxypyrazolo[1,5-a]pyrimidin-3-yl)-3-fluoro-N-(piperidin-3-yl)pyridin-2-amine], the IC50 at FLT3 (Table 11) was < 0.5 nM.

In turn, `COc1cn2ncc(-c3ccnc(N[C@H]4CNCC[C@@H]4F)n3)c2nc1C(C)(C)O` [Compound 3a, 2-(3-(2-(((3S,4S)-4-fluoropiperidin-3-yl)amino)pyrimidin-4-yl)-6-methoxypyrazolo[1,5-a]pyrimidin-5-yl)propan-2-ol] showed an IC50 against FLT3 (Table 17) of 0.7 nM.

The IC50 is the concentration needed to halve the response being measured.
